Assay results taken from patent US20250289793A1, “MACROCYCLIC INHIBITORS OF ATP CITRATE LYASE” (Esperion Therapeutics, Inc., priority 2022, published 2025).
Like-named read-outs stand apart in the source and are kept apart here. Each block holds one compound with its values, some of them ahead of it.

How the values were obtained:
[1] = target: Recombinant human ACLY full length protein (Homo sapiens (Human), UniProt P53396); experiment: hACLY ADP-Glo activity assay; format: biochemical; settings: 0.5 nM ACLY; 15 μM sodium citrate, 1 μM coenzyme A, 80 μM ATP; ADP formed, luminescence; read-out: ADP-Glo IC50 GMean
Chain of Recombinant human ACLY full length protein (P53396 whole entry): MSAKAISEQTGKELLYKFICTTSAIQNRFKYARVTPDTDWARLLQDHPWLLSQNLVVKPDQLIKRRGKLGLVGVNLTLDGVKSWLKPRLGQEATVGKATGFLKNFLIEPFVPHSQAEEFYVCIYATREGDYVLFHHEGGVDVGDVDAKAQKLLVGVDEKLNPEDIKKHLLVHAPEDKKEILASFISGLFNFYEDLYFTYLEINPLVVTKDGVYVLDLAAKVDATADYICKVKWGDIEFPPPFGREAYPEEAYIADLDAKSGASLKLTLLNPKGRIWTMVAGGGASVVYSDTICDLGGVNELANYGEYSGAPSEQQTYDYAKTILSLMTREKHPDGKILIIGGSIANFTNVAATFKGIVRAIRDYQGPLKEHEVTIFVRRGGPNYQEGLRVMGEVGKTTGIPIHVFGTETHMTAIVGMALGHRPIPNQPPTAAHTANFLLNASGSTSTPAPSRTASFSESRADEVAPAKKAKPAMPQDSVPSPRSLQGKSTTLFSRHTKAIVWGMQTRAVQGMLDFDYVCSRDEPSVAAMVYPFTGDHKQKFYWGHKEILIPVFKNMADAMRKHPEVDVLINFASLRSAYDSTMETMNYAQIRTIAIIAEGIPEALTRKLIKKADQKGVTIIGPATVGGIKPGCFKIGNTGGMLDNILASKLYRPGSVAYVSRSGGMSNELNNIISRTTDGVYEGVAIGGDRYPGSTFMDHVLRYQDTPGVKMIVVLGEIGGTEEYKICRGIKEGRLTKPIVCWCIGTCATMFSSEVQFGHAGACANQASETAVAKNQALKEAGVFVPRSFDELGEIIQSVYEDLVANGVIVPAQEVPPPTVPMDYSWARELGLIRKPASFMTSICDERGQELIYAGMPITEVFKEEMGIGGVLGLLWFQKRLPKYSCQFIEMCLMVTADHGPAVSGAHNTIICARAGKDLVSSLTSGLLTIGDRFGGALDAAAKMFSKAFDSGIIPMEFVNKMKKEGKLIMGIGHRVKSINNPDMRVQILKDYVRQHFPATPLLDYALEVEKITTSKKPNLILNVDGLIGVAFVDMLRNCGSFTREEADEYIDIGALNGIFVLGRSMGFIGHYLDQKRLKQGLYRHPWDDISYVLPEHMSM
Procedure: Compounds of the disclosure were evaluated for their efficacy in inhibiting hACLY using an ADP-Glo™ assays that measure ADP formed from the enzymatic activity of hACLY.
Test compounds were 3-fold serially diluted in DMSO over 11-point concentration range and dispensed onto a 384-well plate. Recombinant human ACLY full length protein was purified. Concentrations of ACLY protein, sodium citrate, coenzyme A, and ATP in the reaction were optimized for standardized homogenous enzyme assay using ADP-Glo™ Kinase (Promega Inc.). The assay measured ADP formed from the enzymatic reaction.
The reaction buffer consisted of the assay buffer (50 mM HEPES pH 8.0, 10 mM MgCl2, 4 mM 1,4-Dithiothreitol, 0.01% Brij® 35).
ACLY protein (0.5 nM) was added to the prepared reaction buffer, and the mixture was dispensed into the assay plate and incubated for 30 minutes at room temperature. Next, 15 μM sodium citrate, 1 μM coenzyme A, and 80 μM ATP were added into the assay plate and incubated for 60 minutes at room temperature. The final reaction volume for each well was 5 μL.
5 μL of ADP-Glo™ reagent was added, and the mixture was incubated for 40 minutes at room temperature. 10 μl ADP-Glo™ detection reagent was added, and the mixture was incubated for 30 minutes at room temperature. Luminescence was determined using EnVision microplate reader with ultra-luminescence module (Perkin Elmer Inc). Concentration-response curve-fitting and IC50 determination was performed using Xlfit Software (version 5.5.0) with a four-parameter logistic regression fit model.

ACLY [2] = target: T1, ACLY (Homo sapiens (Human), UniProt P53396); experiment: Human ACLY (hACLY) RF/MS activity assay; format: biochemical; settings: 1 nM hACLY; 30 min pre-incubation; 15 μM Coenzyme A, 50 μM ATP, 50 μM citrate; CoA to Acetyl-CoA by RF/MS; read-out: RFMS IC50 GMean
T1 sequence (P53396 whole entry): as above
How it was run: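 RapidFire MS read CoA-to-acetyl-CoA conversion as a substrate/product ratio after 30 min at RT (20° C) with final 15 μM CoA, 50 μM ATP, 50 μM citrate. Before substrate addition, 1 nM enzyme sat 30 min with compound (top 10 μM, two-fold dilutions; 1% DMSO) in pH 8.0 Hepes/MgCl2/NaCl/DTT buffer.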

ACLY [3] = target: T1, ACLY; experiment: InCell Pulse assay (permeate HEK293 cells, bind to and stabilize ACLY); format: cell-based; settings: HEK293 cells transfected with pICP-ACLY(FL)-ePL; 1 hour at 37° C., 55° C. heat pulse 10 minutes; read-out: InCell Pulse IC50 GMean
How it was run: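 HEK293 cells transiently expressing full-length ACLY-ePL were exposed in OptiMEM to 11-point, 3-fold compound dilutions for 1 h at 37 °C, heat-pulsed 10 min at 55 °C, then lysed for enzyme-fragment complementation luminescence. Four-parameter fit, normalised to 0.5% DMSO and 1 μM NDI-094311.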

Compound: COc1c(Cl)cc2cc1S(=O)(=O)Nc1cc(c(F)cc1F)-c1cccc3c1OC(COC2=O)C3 (stereo not shown)
ring closure, isolated yield (from COc1c(Cl)cc(C(=O)O)cc1S(=O)(=O)Nc1cc(-c2cccc3c2OC(CO)C3)c(F)cc1F, ester bond, 15-membered ring, DCC/DMAP, DCM, 29.5 mM, 25.0 °C, 2.0 h): 70%

Compound: COc1c(Cl)cc2cc1S(=O)(=O)Nc1cc(c(F)cc1F)-c1ccccc1C(C)CCOC2=O (stereo not shown)
ring closure, isolated yield (from COc1c(Cl)cc(C(=O)O)cc1S(=O)(=O)Nc1cc(-c2ccccc2C(C)CCO)c(F)cc1F, ester bond, 15-membered ring, DCC/DMAP, DCM, 19.8 mM, 25.0 °C, 2.0 h): 72%

Compound: COc1c(Cl)cc2cc1S(=O)(=O)Nc1cc(c(F)cc1F)-c1ccccc1COC(=O)C2
ring closure, isolated yield (from COc1c(Cl)cc(CC(=O)O)cc1S(=O)(=O)Nc1cc(-c2ccccc2CO)c(F)cc1F, ester bond, 14-membered ring, DCC/DMAP, DCM, 12.7 mM, 3.0 h): 19%

Compound: COc1c(Cl)cc2cc1S(=O)(=O)Nc1cc(c(F)cc1F)-c1ccccc1COC2=O
ring closure, isolated yield (from COc1c(Cl)cc(C(=O)O)cc1S(=O)(=O)Nc1cc(-c2ccccc2CO)c(F)cc1F, ester bond, 13-membered ring, DCC/DMAP, DCM, 21.8 mM, 26.5 h): 43%

Compound: COc1c(Cl)cc2cc1S(=O)(=O)Nc1cc(c(F)cc1F)-c1ccccc1N1CC(COC2=O)C1
ring closure, isolated yield (from 3-chloro-5-[[2,4-difluoro-5-[2-[3-(hydroxymethyl)229azetidine-1-yl]phenyl]phenyl]sulfamoyl]-4-methoxybenzoic acid, ester bond, 16-membered ring, DCC/DMAP, DCM, 25.0 mM): 60%

Compound: COc1c(Cl)cc2cc1S(=O)(=O)Nc1cc(c(F)cc1F)Oc1cccc(c1)COC2=O
ring closure, isolated yield (from COc1c(Cl)cc(C(=O)O)cc1S(=O)(=O)Nc1cc(Oc2cccc(CO)c2)c(F)cc1F, ester bond, 15-membered ring, DCC/DMAP, DCM, 19.8 mM, 3.0 h): 72%

Compound: COc1c(Cl)cc2cc1S(=O)(=O)Nc1cc(ccc1C(F)(F)F)-c1ccccc1OCCOC2=O
ring closure, isolated yield (from COc1c(Cl)cc(C(=O)O)cc1S(=O)(=O)Nc1cc(-c2ccccc2OCCO)ccc1C(F)(F)F, ester bond, 15-membered ring, DCC/DMAP, DCM, 16.8 mM, 25.0 °C, 1.0 h): 42%

Compound: COc1c(Cl)cc2cc1S(=O)(=O)Nc1cc(ccc1F)-c1ccccc1CCCOC2
ring closure, isolated yield (from COc1c(Cl)cc(CBr)cc1S(=O)(=O)Nc1cc(-c2ccccc2CCCO)ccc1F, ether bond, 15-membered ring, NaH, THF, 13.0 mM, 50.0 °C, 2.0 h): 46%

Compound: COc1c(Cl)cc2cc1S(=O)(=O)Nc1cc(ccc1F)-c1ccccc1CCOC2
ring closure, isolated yield (from COc1c(Cl)cc(CBr)cc1S(=O)(=O)Nc1cc(-c2ccccc2CCO)ccc1F, ether bond, 14-membered ring, NaH, THF, 12.7 mM, 50.0 °C, 2.5 h): 78%

Compound: COc1c(Cl)cc2cc1S(=O)(=O)Nc1cc(ccc1F)N1CCC[C@@H]1CCOC2=O
ring closure, isolated yield (from 3-chloro-5-[[2-fluoro-5-[(2R)-2-(2-hydroxyethyl)221pyrrolidine-1-yl]phenyl]sulfamoyl]-4-methoxybenzoic acid, ester bond, 14-membered ring, DCC/DMAP, DCM, 26.0 mM): 77%

Compound: COc1ccc2cc1C(=O)N1CCc3cc(F)c(cc31)-c1ccccc1OCCNC2=O
ring closure, isolated yield (from 3-[6-[2-(2-aminoethoxy)phenyl]-5-fluoro-indoline-1-carbonyl]-4-methoxybenzoic acid·HCl, amide bond, 15-membered ring, T3P/DIPEA, DMF, 11.6 mM): 24%

Compound: O=C1OCCOc2ccccc2-c2cc(c(F)cc2F)NS(=O)(=O)c2cc1cc(Cl)c2C(F)F
ring closure, isolated yield (from O=C(O)c1cc(Cl)c(C(F)F)c(S(=O)(=O)Nc2cc(-c3ccccc3OCCO)c(F)cc2F)c1, ester bond, 15-membered ring, DCC/DMAP, DCM, 33.0 mM, 25.0 °C, 1.5 h): 53%

IC50 [1]: ≥ 1000 nM
Compound: COc1c(Cl)cc2cc1S(=O)(=O)Nc1cc(c(F)cc1F)-c1ccccc1OCCNC2=O [Compound 1, 15-chloro-21,23-difluoro-16-methoxy-8-oxa-18lambda6-thia-11,19-diazatetracyclo[18.3.1.1^13,17.0^2,7]pentacosa-1(24),2,4,6,13,15,17(25),20,22-nonaene-12,18,18-trione]
ring closure, isolated yield (amide bond, 15-membered ring, T3P/DIPEA, EtOAc/DMF, 4.9 mM): 72%

IC50 (ACLY [2]): 100 to 10000 nM
IC50 [1]: 10 to 1000 nM
IC50 (ACLY [3]): ≥ 50000 nM
Compound: O=C1NCCOc2cccc(c2)-c2cc(c(F)cc2F)NS(=O)(=O)c2cc1cc(Cl)c2O [Compound 3, 11-chloro-3,5-difluoro-10-hydroxy-18-oxa-8lambda6-thia-7,15-diazatetracyclo[17.3.1.1^2,6.1^9,13]pentacosa-1(22),2(25),3,5,9(24),10,12,19(23),20-nonaene-8,8,14-trione]

IC50 (ACLY [2]): 100 to 10000 nM
IC50 [1]: 10 to 1000 nM
IC50 (ACLY [3]): ≥ 50000 nM
Compound: O=C1NCCCOc2cccc(c2)-c2cc(c(F)cc2F)NS(=O)(=O)c2cc1cc(Cl)c2O [Compound 5, 11-chloro-3,5-difluoro-10-hydroxy-19-oxa-8lambda6-thia-7,15-diazatetracyclo[18.3.1.1^2,6.1^9,13]hexacosa-1(23),2(26),3,5,9(25),10,12,20(24),21-nonaene-8,8,14-trione]

IC50 (ACLY [2]): 100 to 10000 nM
IC50 [1]: 10 to 1000 nM
IC50 (ACLY [3]): ≥ 50000 nM
Compound: C[C@@H]1COc2ccccc2-c2cc(c(F)cc2F)NS(=O)(=O)c2cc(cc(Cl)c2O)C(=O)N1 [Compound 19, (10R)-15-chloro-21,23-difluoro-16-hydroxy-10-methyl-8-oxa-18lambda6-thia-11,19-diazatetracyclo[18.3.1.1^13,17.0^2,7]pentacosa-1(24),2,4,6,13,15,17(25),20,22-nonaene-12,18,18-trione]

IC50 (ACLY [2]): < 20 nM
IC50 [1]: < 1 nM
IC50 (ACLY [3]): 300 to 1000 nM
Compound: O=C1OCCCOc2ccccc2-c2cc(c(F)cc2F)NS(=O)(=O)c2cc1cc(Cl)c2O [Compound 20, 16-chloro-22,24-difluoro-17-hydroxy-8,12-dioxa-19lambda6-thia-20-azatetracyclo[19.3.1.1^14,18.0^2,7]hexacosa-1(25),2,4,6,14,16,18(26),21,23-nonaene-13,19,19-trione]

IC50 (ACLY [2]): 100 to 10000 nM
IC50 (ACLY [3]): ≥ 50000 nM
Compound: O=C1c2cc(Cl)c(O)c(c2)S(=O)(=O)Nc2cc(c(F)cc2F)-c2cccc3c2CN1C3 [Compound 89, 13-chloro-19,21-difluoro-14-hydroxy-16,16-dioxo-16λ6-thia-9,17-diazapentacyclo[16.3.1.16,9.111,15.02,7]tetracosa-1(21),2(7),3,5,11,13,15(23),18(22),19-nonaen-10-one]

IC50 (ACLY [2]): 100 to 10000 nM
IC50 (ACLY [3]): ≥ 50000 nM
Compound: O=C1NCc2ncccc2-c2cc(c(F)cc2F)NS(=O)(=O)c2cc1cc(Cl)c2O [Compound 90, 13-chloro-19,21-difluoro-14-hydroxy-16,16-dioxo-16λ6-thia-6,9,17-triazatetracyclo[16.3.1.111,15.02,7]tricosa-1(22),2,4,6,11,13,15(23),18,20-nonaen-10-one]

IC50 (ACLY [2]): 100 to 10000 nM
IC50 (ACLY [3]): ≥ 50000 nM
Compound: CN1Cc2ccccc2-c2cc(c(F)cc2F)NS(=O)(=O)c2cc(cc(Cl)c2O)C1=O [Compound 91, 13-chloro-19,21-difluoro-14-hydroxy-9-methyl-16,16-dioxo-16λ6-thia-9,17-diazatetracyclo[16.3.1.111,15.02,7]tricosa-1(22),2,4,6,11(23),12,14,18,20-nonaen-10-one]

IC50 (ACLY [2]): 100 to 10000 nM
IC50 (ACLY [3]): 1000 to 50000 nM
Compound: O=S1(=O)Nc2cc(ccc2F)-c2ccccc2CCCOCc2cc(Cl)c(O)c1c2 [Compound 92, 15-chloro-21-fluoro-18,18-dioxo-11-oxa-18λ6-thia-19-azatetracyclo[18.3.1.113,17.02,7]pentacosa-1(24),2,4,6,13,15,17(25),20,22-nonaen-16-ol]
